This is an account of results in ChEMBL document CHEMBL2406956, “Discovery and optimisation of 1-hydroxyimino-3,3-diphenylpropanes, a new class of orally active GPBAR1 (TGR5) agonists” (Bioorg Med Chem Lett, 2013).

Series [1] can be described thus: 1-octanol-aqueous buffer distribution coefficient, log D of the compound at 0.5 mM at pH 7.4 after 2 hrs by shake flask method. Type of series: physicochemical.
Series [2] can be described thus: Cmax in C57Bl/6 DIO mouse at 30 mg/kg, po. It is filed as ADME, organism-based. Set-up: dose 30 mg/kg, route oral. The following applies: in vivo.
A short description of series [3]: Oral bioavailability in C57Bl/6 DIO mouse at 30 mg/kg. It is filed as ADME, organism-based. The following applies: in vivo.
Series [4] is described as follows: Half life in C57Bl/6 DIO mouse at 1 mg/kg, iv. Type of series: ADME, organism-based. Set-up: dose 1 mg/kg, route intravenous. The following applies: in vivo.
Series [5] is described as follows: Volume of distribution at steady state in C57Bl/6 DIO mouse at 1 mg/kg, iv. Type of series: ADME, organism-based. Set-up: dose 1 mg/kg, route intravenous. The conditions noted are these: in vivo, read-out: Vdss.
Series [6] is described as follows: Clearance in C57Bl/6 DIO mouse at 1 mg/kg, iv. Type of series: ADME, organism-based. The arrangement: dose 1 mg/kg, route intravenous. The conditions noted are these: in vivo.
Series [7] can be described thus: Oral bioavailability in C57Bl/6 DIO mouse at 49 mg/kg. Type of series: ADME, organism-based. The following applies: in vivo.
Series [8] can be described thus: Cmax in C57Bl/6 DIO mouse at 22 mg/kg, po. It is filed as ADME, organism-based. The arrangement: dose 22 mg/kg, route oral. The following applies: in vivo.
Series [9] in a line: Oral bioavailability in C57Bl/6 DIO mouse at 22 mg/kg. It is filed as ADME, organism-based. The following applies: in vivo.
A short description of series [10]: Stability of the compound in aqueous solution assessed as recovery at pH 1 to 10 after 2 hrs. The following applies: read-out: Drug recovery. It is filed as physicochemical.
For a further series, the system named is Plasma. Description: Plasma concentration in C57Bl/6 DIO mouse at 50 to 100 mg/kg, po. It is filed as ADME, organism-based. The following applies: in vivo. Set-up: dose 50-100 mg/kg, route oral.
A short description of series [11]: Oral bioavailability in C57Bl/6 DIO mouse at 23 mg/kg. It is filed as ADME, organism-based. The conditions noted are these: in vivo.

By logD is commonly meant the decadic logarithm of the distribution of all forms, ionised or not, between an organic phase and buffer at a given pH. A low value points to lower lipophilicity. In general, Cmax refers to the peak of the concentration-time curve. The term bioavailability denotes dose-corrected exposure relative to a reference, in per cent. High values mean good availability, low ones poor availability. One may read the half-life as how long it takes for the measured level to halve. Lower therefore signals rapid decline. The term clearance denotes the rate of elimination divided by the concentration. A higher clearance goes with efficient removal.

A value given as a limit tells only on which side of the number the result lay.

`Cc1cc(/C(C[C@@H](c2ccc(-c3ccc(C(=O)O)cc3)cc2)c2ccccc2C)=N/O)ccn1` had a logD at 2 h, 500 µM in series [1] of 2.7.
In series [2], `Cc1cc(/C(C[C@H](c2ccc(N3CCC(C(=O)O)CC3)cc2)c2ccccc2C)=N/O)ccn1` returned a Cmax of 41000 ng/mL. Further, the bioavailability in [3] stood at 100%. This compound had a half-life in [4] of 1.7 h. Besides, the Vd in [5] worked out at 0.4 L/kg. Moreover, in series [1], the logD at 2 h, 500 µM amounted to 1.5. For the same compound, the clearance in series [6] amounted to 5 mL/min/kg.
For `Cc1cc(/C(C[C@@H](c2ccc(N3CCC(C(=O)O)CC3)cc2)c2ccccc2C)=N/O)ccn1`, the logD at 2 h, 500 µM in series [1] is 1.6.
In turn, `Cc1ccccc1[C@H](C/C(=N\O)c1ccc(=O)n(C)c1)c1ccc(-c2ccc(C(=O)O)cc2)cc1` registered a bioavailability in series [7] of 67%. Also, in series [4], the half-life was 0.7 h. Further, the Vd in series [5] amounted to 0.5 L/kg. Moreover, the logD at 2 h, 500 µM in series [1] stood at 1.3. The compound also returned a clearance in series [6] of 5 mL/min/kg.
`Cc1ccccc1[C@@H](C/C(=N\O)c1ccc(=O)n(C)c1)c1ccc(-c2ccc(C(=O)O)cc2)cc1`: in series [1], the logD at 2 h, 500 µM was 1.5.
In series [8], `Cc1ccccc1[C@H](C/C(=N\O)c1ccc(=O)n(C)c1)c1ccc(S(C)(=O)=O)cc1` had a Cmax of 870 ng/mL. This compound also gave a bioavailability in [9] of 29%. The half-life in series [4] is 2.2 h. In series [5], the Vd is 3.3 L/kg. In addition, the logD at 2 h, 500 µM in series [1] was 1.7. Moreover, the clearance in [6] came out at 67 mL/min/kg.
Turning to `Cc1ccccc1[C@@H](C/C(=N\O)c1ccc(=O)n(C)c1)c1ccc(S(C)(=O)=O)cc1`, the logD at 2 h, 500 µM in series [1] amounted to 1.9.
Take `CN(C)c1ccc(C(C/C(=N\O)c2ccncc2)c2ccccc2)cc1` (stereo not given): in series [10], the remaining at 2 h was above 90%. In series [1], this compound showed a logD at 2 h, 500 µM of 3.4.
The compound `Cc1cc(/C(CC(c2ccc(Br)cc2)c2ccccc2C)=N/O)ccn1` (stereo not given) displayed a log distribution coefficient (logD) at 2 h, 500 µM in series [1] above 4.
The compound `Cc1cc(/C(C[C@H](c2ccc(-c3ccc(C(=O)O)cc3)cc2)c2ccccc2C)=N/O)ccn1` displayed a Cp with Plasma of 31500 ng/mL. This compound also came in with a bioavailability in series [11] of 80%. In addition, the half-life in series [4] was 0.3 h. The Vd in series [5] is 0.5 L/kg. Further, the logD at 2 h, 500 µM in [1] was determined as 2.7. The clearance in series [6] was 15 mL/min/kg.
